# Laboratory results from US10493077B2, “Fused imidazo-piperidine JAK inhibitor compound” (THERAVANCE BIOPHARMA R&D IP, LLC, priority 2017, dated 2019).
# Read-outs that look alike come from different tables or passages of the source.
# Experiments:
# [1] = Ocular pharmacokinetics in rabbit eyes; type: in vivo; conditions: for half-life: rabbit, vitreous, solution formulation in 2% 2-hydroxypropyl-β-cyclodextrin, intravitreal 50 μg/eye
# Protocol: The objective of this assay was to determine the pharmacokinetics of a test compound in rabbit ocular tissues.
# 1-(2-(6-(2-ethyl-5-fluoro-4-hydroxyphenyl)-4-fluoro-1H-indazol-3-yl)-1,4,6,7-tetrahydro-5H-imidazo[4,5-c]pyridin-5-yl)-2-morpholinoethan-1-one (1), prepared in Example 2, was dissolved in 2% 2-hydroxypropyl-β-cyclodextrin to attain a target concentration of 1 mg/mL. Bilateral intravitreal injection (50 μL/eye) of the solution of test compound was administered to New Zealand white rabbits (50 μg/eye). The test compound concentration was measured in ocular tissues: vitreous, aqueous, retina/choroid and iris-ciliary body at pre-determined time points post injection (30 min, 4 h, 1 d, 3 d, 7 d, 14 d). Two rabbits (four eyes) were dosed for each time point.
# A suspension formulation was prepared by combining compound 1 of Example 2 (Form 1), with 0.5% hydroxypropyl methylcellulose (HPMC E5)+0.02% Tween 80 in normal saline to attain a target concentration of 5 mg/mL, 20 mg/mL and 80 mg/mL for the 0.25 mg/eye, 1 mg/eye and 4 mg/eye doses respectively. Bilateral intravitreal injection (50 μL/eye) of the suspension of test compound was administered to New Zealand white rabbits. The test compound concentration was measured in ocular tissues as in the solution formulation assay at 30 min, 4 h, 24 h, 72 h, 7 d, 14 d, 28 d, 56 d and 84 d post injection. For the 4 mg/eye dose group, an additional time point at 168 d post injection was also collected. […] The clearance rate is consistent with the solubility of compound 1 in the vehicle and the ocular pharmacokinetic behavior in the solution formulation. […] Therefore, it is plausible that drug exposure is longer than that observed in this study. The drug concentration in plasma was measured and found to be at least 3 orders of magnitude lower than the concentration in vitreous tissue at all three concentrations.
# A suspension formulation was prepared by combining compound 1 of Example 5 (Form 2), with 0.5% hydroxypropyl methylcellulose (HPMC E5)+0.02% Tween 80 in normal saline to attain a target concentration of […], 1 mg/mL, 2 mg/mL and 20 mg/mL for the 0.02 mg/eye, 0.05 mg/eye, 0.1 mg/eye and 1 mg/eye doses respectively. Bilateral intravitreal injection (50 μL/eye) of the suspension of test compound was administered to Dutch Belted rabbits. The test compound concentration was measured in vitreous humor, aqueous humor, iris-ciliary body, retina, retinal pigment epithelial/choroidal cells and plasma at 30 min, 7 d, 14 d, 28 d, 42 d and 56 d post injection. […] Therefore, it is plausible that drug exposure is longer than that observed in this study. The drug concentration in plasma was measured and found to be at least 3 orders of magnitude lower than the concentration in vitreous tissue at all three concentrations. The 3 orders of magnitude correspond to a logarithmic scale (ie 1000 on a non-logarithmic scale).
# PKAC-ALPHA = target: T1, PKAC-ALPHA (Homo sapiens, UniProt P17612); assay: Kinome screen, PKAC-ALPHA; type: binding; conditions: screened at 1 μM
# T1 construct: made in house; host or cells: T7 phage in E. coli (BL21-derived) or HEK-293
# Protocol: Kinase-tagged T7 phage strains were grown in parallel in 24-well blocks in an E. coli host derived from the BL21 strain. E. coli were grown to log-phase and infected with T7 phage from a frozen stock (multiplicity of infection=0.4) and incubated with shaking at 32° C. until lysis (90-150 minutes). The lysates were centrifuged (6,000×g) and filtered (0.2 μm) to remove cell debris. The remaining kinases were produced in HEK-293 cells and subsequently tagged with DNA for qPCR detection.
# Streptavidin-coated magnetic beads were treated with biotinylated small molecule ligands for 30 minutes at room temperature to generate affinity resins for kinase assays. The liganded beads were blocked with excess biotin and washed with blocking buffer (SeaBlock (Pierce), 1% BSA, 0.05% Tween 20, 1 mM DTT) to remove unbound ligand and to reduce non-specific phage binding. […] Test compounds were prepared as 40× stocks in 100% DMSO and directly diluted into the assay. All reactions were performed in polypropylene 384-well plates in a final volume of 0.04 ml. […] The beads were then re-suspended in elution buffer (1×PBS, 0.05% Tween 20, 0.5 μM non-biotinylated affinity ligand) and incubated at room temperature with shaking for 30 minutes. The kinase concentration in the eluates was measured by qPCR.
smiles,measurement,setting,value
"CCc1cc(O)c(F)cc1-c1cc(F)c2c(-c3nc4c([nH]3)CCN(C(=O)CN3CCOCC3)C4)n[nH]c2c1 [Compound 1, 1-(2-(6-(2-ethyl-5-fluoro-4-hydroxyphenyl)-4-fluoro-1H-indazol-3-yl)-1,4,6,7-tetrahydro-5H-imidazo[4,5-c]pyridin-5-yl)-2-morpholinoethan-1-one]",ocular exposure at 24 weeks,"[1]; Form 1 suspension, intravitreal 4 mg/eye, New Zealand white rabbits",Sustained exposure
same,drug concentration in plasma lower than concentration in vitreous tissue,"[1]; Form 1 suspension, intravitreal 0.25, 1 and 4 mg/eye, New Zealand white rabbits",at least 3 orders of magnitude
same,ocular exposure at 12 weeks (84 d),"[1]; Form 1 suspension, intravitreal, all doses (0.25, 1, 4 mg/eye), New Zealand white rabbits",Robust sustained exposure
same,drug concentration in plasma lower than concentration in vitreous tissue,"[1]; Form 2 suspension, intravitreal 0.02, 0.05, 0.1 and 1 mg/eye, Dutch Belted rabbits",at least 3 orders of magnitude
same,change of drug concentration in vitreous tissue from 30 min to last time point tested,"[1]; Form 2 suspension, intravitreal 0.02-1 mg/eye, Dutch Belted rabbits, last time point 28-56 d",very gradual decrease
same,half-life,"[1]; New Zealand white, 50 μg/eye, New Zealand white rabbits, read-out: terminal half-life, vitreous tissue (converted)",~48 h
same,concentration in plasma versus vitreous tissue,"[1]; rabbit eyes, single intravitreal injection (summary of Assay 7)",at least three orders of magnitude lower
same,half-life,"[1]; New Zealand white rabbits, read-out: half-life of initial decrease in concentration, vitreous tissue (converted)",~9 h
same,inhibition at 1 µM,PKAC-ALPHA,20%
